# Laboratory results as given in patent US11203600B2 (Denali Therapeutics Inc., priority 2017, dated 2021).
# Biological target: GST-hRIPK1 (8-327) (Homo sapiens (Human), UniProt Q13546)
# Assay: Fluorescent Polarization Binding (FP Binding) assay, RIPK1
# Conditions: 10 nM GST-hRIPK1 (8-327), 5 nM fluorescent-labeled ligand, RT, 30 min, mean of at least two independent experiments
# Summary of the method: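 Binding by fluorescence polarisation at RT: 10 nM baculovirus-expressed GST-hRIPK1 (8-327) and 5 nM fluorescent ligand, 30 min, in 50 mM HEPES pH 7.5, 50 mM MgCl2, 0.02% CHAPS, 1% DMSO. FP read at ex 531/em 595 nm. IC50 from normalised percent inhibition, mean of ≥2 experiments.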
# Chain of GST-hRIPK1 (8-327) (Q13546 8-327): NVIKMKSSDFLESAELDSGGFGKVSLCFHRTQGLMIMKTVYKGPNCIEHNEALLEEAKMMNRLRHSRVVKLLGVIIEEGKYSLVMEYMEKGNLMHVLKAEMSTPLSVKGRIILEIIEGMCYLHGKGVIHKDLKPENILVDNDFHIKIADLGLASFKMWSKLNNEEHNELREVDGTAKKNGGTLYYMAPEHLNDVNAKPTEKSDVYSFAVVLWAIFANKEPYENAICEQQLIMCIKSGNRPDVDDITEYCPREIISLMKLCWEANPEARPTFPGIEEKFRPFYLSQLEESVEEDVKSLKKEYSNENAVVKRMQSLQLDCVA
row,Structure (SMILES),IC50
1,"Cc1cncc2c1OCCN(C(=O)C(C)(C)C(F)F)C2 [Example 62, 3,3-difluoro-2,2-dimethyl-1-(9-methyl-3,5-dihydro-2H-pyrido[3,4-f][1,4]oxazepin-4-yl)propan-1-one]",> 1 µM
2,"CC(C)C(C)(C)C(=O)N1CCOc2c(C#N)cncc2C1 [Example 145, 4-(2,2,3-trimethylbutanoyl)-3,5-dihydro-2H-pyrido[3,4-f][1,4]oxazepine-9-carbonitrile]",0.0001 to 0.1 µM
3,"CC(C)(C(=O)N1CCOc2c(Br)cc(F)cc2C1)C(F)F [Example 37, 1-(9-bromo-7-fluoro-3,5-dihydro-2H-1,4-benzoxazepin-4-yl)-3,3-difluoro-2,2-dimethyl-propan-1-one]",0.1 to 1 µM
4,"CC(C)(C(=O)N1CCOc2cc(C#N)ccc2C1)C(F)F [Example 28, 4-(3,3-difluoro-2,2-dimethyl-propanoyl)-3,5-dihydro-2H-1,4-benzoxazepine-8-carbonitrile]",0.1 to 1 µM
5,"C[C@@H]1C[C@]1(C)C(=O)N1CCOc2c(C#N)cncc2C1 [Example 65, 4-[(1S,2R)-1,2-dimethylcyclopropanecarbonyl]-3,5-dihydro-2H-pyrido[3,4-f][1,4]oxazepine-9-carbonitrile]",0.1 to 1 µM
6,"CCC(C)(OC)C(=O)N1CCOc2c(C#N)cncc2C1 (centres unmarked) [Example 153, 4-(2-methoxy-2-methyl-butanoyl)-3,5-dihydro-2H-pyrido[3,4-f][1,4]oxazepine-9-carbonitrile]",0.0001 to 0.1 µM
7,"CC(C)(CC(F)F)C(=O)N1CCOc2c(F)cccc2C1 [Example 16, 4,4-difluoro-1-(9-fluoro-3,5-dihydro-2H-1,4-benzoxazepin-4-yl)-2,2-dimethyl-butan-1-one]",0.0001 to 0.1 µM
8,"CC(C)(C(=O)N1CCOc2c(C#N)cc(F)cc2C1)C(F)F [Example 22, 4-(3,3-difluoro-2,2-dimethyl-propanoyl)-7-fluoro-3,5-dihydro-2H-1,4-benzoxazepine-9-carbonitrile]",0.0001 to 0.1 µM
9,"CC(C)(Cl)C(=O)N1CCOc2c(C#N)cncc2C1 [Example 158, 4-(2-chloro-2-methyl-propanoyl)-3,5-dihydro-2H-pyrido[3,4-f][1,4]oxazepine-9-carbonitrile]",0.0001 to 0.1 µM
10,"N#Cc1cncc2c1OCCN(C(=O)C13CCN(c4ncc(F)cn4)CC1C3(F)F)C2 (centres unmarked) [Example 99, 4-[7,7-difluoro-3-(5-fluoropyrimidin-2-yl)-3-azabicyclo[4.1.0]heptane-6-carbonyl]-3,5-dihydro-2H-pyrido[3,4-f][1,4]oxazepine-9-carbonitrile]",0.1 to 1 µM
11,"CC1(C(=O)N2CCOc3ccccc3C2)CCN(c2ncc(F)cn2)CC1 [Example 9, 3,5-dihydro-2H-1,4-benzoxazepin-4-yl-[1-(5-fluoropyrimidin-2-yl)-4-methyl-4-piperidyl]methanone]",0.0001 to 0.1 µM
12,"COc1nccc(N2CCC(F)(C(=O)N3CCOc4c(C#N)cncc4C3)CC2)n1 [Example 172, 4-[4-fluoro-1-(2-methoxypyrimidin-4-yl)piperidine-4-carbonyl]-3,5-dihydro-2H-pyrido[3,4-f][1,4]oxazepine-9-carbonitrile]",0.1 to 1 µM
13,"N#Cc1cncc2c1OCCN(C(=O)C1(C(F)(F)F)CC1)C2 [Example 48, 4-[1-(trifluoromethyl)cyclopropanecarbonyl]-3,5-dihydro-2H-pyrido[3,4-f][1,4]oxazepine-9-carbonitrile]",0.1 to 1 µM
14,"Cc1cnc(N2CCC(F)(C(=O)N3CCOc4c(C#N)cncc4C3)CC2)nc1 [Example 163, 4-[4-fluoro-1-(5-methylpyrimidin-2-yl)piperidine-4-carbonyl]-3,5-dihydro-2H-pyrido[3,4-f][1,4]oxazepine-9-carbonitrile]",0.1 to 1 µM
15,"COc1nc(N2CCC(F)(C(=O)N3CCOc4c(C#N)cncc4C3)CC2)nc2ccccc12 [Example 197, 4-[4-fluoro-1-(4-methoxyquinazolin-2-yl)piperidine-4-carbonyl]-3,5-dihydro-2H-pyrido[3,4-f][1,4]oxazepine-9-carbonitrile]",0.1 to 1 µM
16,"N#Cc1cncc2c1OCCN(C(=O)C1(C(F)F)CCN(c3ncc(F)cn3)CC1)C2 [Example 94, 4-[4-(difluoromethyl)-1-(5-fluoropyrimidin-2-yl)piperidine-4-carbonyl]-3,5-dihydro-2H-pyrido[3,4-f][1,4]oxazepine-9-carbonitrile]",0.1 to 1 µM
17,"COC1(C(=O)N2CCOc3c(C#N)cncc3C2)CCN(c2ncc(F)cn2)CC1 [Example 185, 4-[1-(5-fluoropyrimidin-2-yl)-4-methoxy-piperidine-4-carbonyl]-3,5-dihydro-2H-pyrido[3,4-f][1,4]oxazepine-9-carbonitrile]",0.0001 to 0.1 µM
18,"COC(C)(C)C(=O)N1CCOc2c(C#N)cncc2C1 [Example 43, 4-(2-methoxy-2-methyl-propanoyl)-3,5-dihydro-2H-pyrido[3,4-f][1,4]oxazepine-9-carbonitrile]",0.1 to 1 µM
19,"N#Cc1cncc2c1OCCN(C(=O)C1(F)CCN(c3cc4ccccc4cn3)CC1)C2 [Example 199, 4-[4-fluoro-1-(3-isoquinolyl)piperidine-4-carbonyl]-3,5-dihydro-2H-pyrido[3,4-f][1,4]oxazepine-9-carbonitrile]",0.0001 to 0.1 µM

# Same assay, conditions: GST-hRIPK1 (8-327), mean of at least two independent experiments
row,Structure (SMILES),IC50
1,"CC1(C(=O)N2CCOc3c(C#N)cncc3C2)CCN(c2nccn3ncnc23)CC1(F)F (centres unmarked) [Example 222, 4-[3,3-difluoro-4-methyl-1-([1,2,4]triazolo[1,5-a]pyrazin-8-yl)piperidine-4-carbonyl]-3,5-dihydro-2H-pyrido[3,4-f][1,4]oxazepine-9-carbonitrile]",0.0001 to 0.1 µM
2,"N#Cc1cncc2c1OCCN(C(=O)C1(F)CCN(c3nc(Cl)ncc3F)CC1)C2 [Example 202, 4-[1-(2-chloro-5-fluoro-pyrimidin-4-yl)-4-fluoro-piperidine-4-carbonyl]-3,5-dihydro-2H-pyrido[3,4-f][1,4]oxazepine-9-carbonitrile]",0.0001 to 0.1 µM
3,"N#Cc1cncc2c1OCCN(C(=O)C1(F)CCN(c3ccc4ccccc4n3)CC1)C2 [Example 200, 4-[4-fluoro-1-(2-quinolyl)piperidine-4-carbonyl]-3,5-dihydro-2H-pyrido[3,4-f][1,4]oxazepine-9-carbonitrile]",0.0001 to 0.1 µM
4,"CC(C)(C(=O)N1CCOc2c(C#N)cncc2C1)C1CC1COC(F)(F)F (centres unmarked) [Example 274, 4-(2-Methyl-2-(2-((trifluoromethoxy)methyl)cyclopropyl)propanoyl)-2,3,4,5-tetrahydropyrido[3,4-f][1,4]oxazepine-9-carbonitrile]",> 1 µM
5,"CC(C)(C(=O)N1CCOc2c(C#N)cncc2C1)C1CCN(c2ncc(F)cn2)C1 (single isomer, unassigned) [Example 280, 4-[2-(-1-(5-Fluoropyrimidin-2-yl)pyrrolidin-3-yl)-2-methyl-propanoyl]-3,5-dihydro-2H-pyrido[3,4-f][1,4]oxazepine-9-carbonitrile]",> 1 µM
6,"CCC(C)(OC)C(=O)N1CCOc2c(C#N)cncc2C1 (single isomer, unassigned) [Example 283, 4-(-2-Methoxy-2-methyl-butanoyl)-3,5-dihydro-2H-pyrido[3,4-f][1,4]oxazepine-9-carbonitrile]",0.1 to 1 µM
7,"COC1(C(=O)N2CCOc3c(F)cncc3C2)CCN(c2ncnc(OCC(F)F)n2)CC1 [Example 209, [1-[4-(2,2-difluoroethoxy)-1,3,5-triazin-2-yl]-4-methoxy-4-piperidyl]-(9-fluoro-3,5-dihydro-2H-pyrido[3,4-f][1,4]oxazepin-4-yl)methanone]",0.1 to 1 µM
8,"N#Cc1cncc2c1OCCN(C(=O)C1CCN(c3ncnn4ccnc34)CC1(F)F)C2 (centres unmarked) [Example 218, 4-(3,3-difluoro-1-imidazo[2,1-f][1,2,41triazin-4-yl-piperidine-4-carbonyl)-3,5-dihydro-2H-pyrido[3,4-f][1,4]oxazepine-9-carbonitrile)]",0.1 to 1 µM
9,COc1nc(N2CCC(C(=O)N3CCOc4ccncc4C3)CC2)ncc1F [Example 238],0.0001 to 0.1 µM
10,"CC(C)(C(=O)N1CCOc2c(C#N)cncc2C1)C1CC(n2ccnn2)C1 (centres unmarked) [Example 276, 4-[2-Methyl-2-[3-(triazol-1-yl)cyclobutyl]propanoyl]-3,5-dihydro-2H-pyrido[3,4-f][1,4]oxazepine-9-carbonitrile]",> 1 µM
11,COc1nc(N2CCC(C(=O)N3CCOc4c(F)cncc4C3)CC2)ncc1F [Example 236],0.0001 to 0.1 µM
12,"Cc1ncc2c(c1C#N)OCCN(C(=O)C(C)(C)C(F)F)C2 [Example 262, 4-(3,3-difluoro-2,2-dimethyl-propanoyl)-8-methyl-3,5-dihydro-2H-pyrido[3,4-f][1,4]oxazepine-9-carbonitrile]",0.1 to 1 µM
13,"N#Cc1cncc2c1OCCN(C(=O)C1CCN(c3ccnc4ccnn34)CC1)C2 [Example 205, 4-(1-pyrazolo[1,5-a]pyrimidin-7-ylpiperidine-4-carbonyl)-3,5-dihydro-2H-pyrido[3,4-f][1,4]oxazepine-9-carbonitrile]",0.1 to 1 µM
14,"N#Cc1cncc2c1OCCN(C(=O)C1(F)CCN(c3ccc4c(n3)CNC4)CC1)C2 [Example 286, 4-[1-(6,7-dihydro-5H-pyrrolo[3,4-b]pyridin-2-yl)-4-fluoro-piperidine-4-carbonyl]-3,5-dihydro-2H-pyrido[3,4-f][1,4]oxazepine-9-carbonitrile]",> 1 µM
15,"CC(F)(F)C(C)(C(=O)N1CCOc2c(C#N)cncc2C1)C(F)F (centres unmarked) [Example 269, 4-[2-(difluoromethyl)-3,3-difluoro-2-methyl-butanoyl]-3,5-dihydro-2H-pyrido[3,4-f][1,4]oxazepine-9-carbonitrile]",0.1 to 1 µM
16,"COC1(C(=O)N2CCOc3ccncc3C2)CCN(c2ncc(F)cn2)CC1 [Example 234, 3,5-dihydro-2H-pyrido[3,4-f][1,4]oxazepin-4-yl-[1-(5-fluoropyrimidin-2-yl)-4-methoxy-4-piperidyl]methanone]",0.0001 to 0.1 µM
